Source: BindingDB's records for doi:10.1021/jm970096g (National Cancer Institute-Frederick, 1998)

Legend:
[1] = Cross Resistance (antiviral activity) with K103N (Non nucleoside reverse transcriptase inhibitor) resistant HIV isolate from cytopathic cell killing assay
[2] = Cross Resistance (antiviral activity) with 4xAZT (nucleoside reverse transcriptase inhibitor) resistant HIV isolate from cytopathic cell killing assay
[3] = Cross Resistance (antiviral activity) with V108I (Non nucleoside reverse transcriptase inhibitor) resistant HIV isolate v
[4] = Cross Resistance (antiviral activity) with V106A (Non nucleoside reverse transcriptase inhibitor) resistant HIV isolate from cytopathic cell killing assay
[5] = Cross Resistance (antiviral activity) with 4xAZT/L100I (Non nucleoside reverse transcriptase inhibitor) resistant HIV isolate from cytopathic cell killing assay
[6] = Cross Resistance (antiviral activity) with A98G (Non nucleoside reverse transcriptase inhibitor) resistant HIV isolate from cytopathic cell killing assay
[7] = Cross Resistance (antiviral activity) with NL4-3(WT) NNRTI (Non nucleoside reverse transcriptase inhibitor) resistant HIV isolate from cytopathic cell killing assay
[8] = Cross Resistance (antiviral activity) with Y181C (Non nucleoside reverse transcriptase inhibitor) resistant HIV isolate from cytopathic cell killing assay
[9] = Cross Resistance (antiviral activity) with L74V (nucleoside reverse transcriptase inhibitor) resistant HIV isolate from cytopathic cell killing assay
[10] = Cross Resistance (antiviral activity) with V179D (Non nucleoside reverse transcriptase inhibitor) resistant HIV isolate from cytopathic cell killing assay
[11] = Cross Resistance (antiviral activity) with 4xAZT/Y181C (Non nucleoside reverse transcriptase inhibitor) resistant HIV isolate from cytopathic cell killing assay
[12] = Cross Resistance (antiviral activity) with K101E (Non nucleoside reverse transcriptase inhibitor) resistant HIV isolate from cytopathic cell killing assay
[13] = Cross Resistance (antiviral activity) with L100I (Non nucleoside reverse transcriptase inhibitor) resistant HIV isolate from cytopathic cell killing assay
[14] = Cross Resistance (antiviral activity) with Y188C (Non nucleoside reverse transcriptase inhibitor) resistant HIV isolate from cytopathic cell killing assay
[15] = Cross Resistance (antiviral activity) with V108I (Non nucleoside reverse transcriptase inhibitor) resistant HIV isolate from cytopathic cell killing assay
[16] = Cross Resistance (antiviral activity) with Y181C (Non nucleoside reverse transcriptase inhibitor) resistant HIV isolate from cytopathic cell killing assay; remark: listed apart in the source
[17] = Cross Resistance (antiviral activity) with K101E (Non nucleoside reverse transcriptase inhibitor) resistant HIV isolate from cytopathic cell killing assay; remark: listed apart in the source
[18] = Cross Resistance (antiviral activity) with A98G (Non nucleoside reverse transcriptase inhibitor) resistant HIV isolate from cytopathic cell killing assay; remark: listed apart in the source
[19] = Cross Resistance (antiviral activity)of the compound with 4xAZT/Y181C (Non nucleoside reverse transcriptase inhibitor) resistant HIV isolate from cytopathic cell killing assay

Which results are given for `Cc1cccc2c1nc(-c1c(F)cccc1F)n2Cc1c(F)cccc1F`?
EC50 [1]: 8.1 µM; EC50 [2]: 0.1 µM; EC50 [3]: 2.8 µM; EC50 [4]: 20 µM; EC50 [5]: 0.2 µM; EC50 [6]: 1.4 µM; EC50 [7]: 0.5 µM; EC50 [8]: 6 µM; EC50 [9]: 0.1 µM; EC50 [10]: 0.5 µM; EC50 [11]: 3.5 µM; EC50 [12]: 16.7 µM; EC50 [13]: 0.3 µM; EC50 [14]: 2.3 µM

Which EC50 [1] does the source give for `Fc1cccc(F)c1Cn1c(-c2c(F)cccc2F)nc2ccccc21` here?
The EC50 was 12.9 µM.

And the EC50 [2]?
The EC50 was 0.27 µM.

And the EC50 [4]?
The EC50 was > 20 µM.

And the EC50 [15]?
Its EC50 is 10.4 µM.

What about the EC50 [5] of the same compound?
The EC50 was 0.84 µM.

And the EC50 [6]?
The EC50 was 4.75 µM.

What about the EC50 [7] of the same compound?
The EC50 was 1.85 µM.

And the EC50 [9]?
Its EC50 is 0.46 µM.

What about the EC50 [16] of the same compound?
The EC50 was 15.2 µM.

What about the EC50 [10] of the same compound?
Its EC50 is 2.3 µM.

And the EC50 [17]?
Its EC50 is > 20 µM.

And the EC50 [11]?
The EC50 was > 20 µM.

And the EC50 [14]?
The EC50 was 11.7 µM.

With `Fc1cccc(F)c1C1SCc2nc3ccccc3n21` (centres undefined) [3-(2,6-difluorophenyl)-4-thia-2,7-diazatricyclo[6.4.0.0^{2,6}]dodeca-1(12),6,8,10-tetraene] as the compound, how does the EC50 [1] read?
Its EC50 is > 20 µM.

And the EC50 [2]?
The EC50 was 1.5 µM.

And the EC50 [4]?
Its EC50 is > 20 µM.

What about the EC50 [15] of the same compound?
The EC50 was 9.7 µM.

And the EC50 [5]?
The EC50 was 1.7 µM.

And the EC50 [7]?
The EC50 was 1.7 µM.

And the EC50 [8]?
Its EC50 is 16.3 µM.

What about the EC50 [9] of the same compound?
The EC50 was 0.7 µM.

And the EC50 [10]?
Its EC50 is 3.1 µM.

What about the EC50 [18] of the same compound?
Its EC50 is 17.7 µM.

What about the EC50 [17] of the same compound?
The EC50 was > 20 µM.

What about the EC50 [11] of the same compound?
The EC50 was 14.5 µM.

What about the EC50 [13] of the same compound?
Its EC50 is 12.2 µM.

Which results are given for `CC1Cn2c(=O)[nH]c3cccc(c32)CN1` (stereo not drawn) [(S-(+))-8-Methyl-6,7,8,9-tetrahydro-2H-2,7,9a-triaza-benzo[cd]azulen-1-one]?
EC50 [1]: 17.4 µM; EC50 [19]: 2 µM; EC50 [2]: 0.3 µM; EC50 [4]: 12.5 µM; EC50 [15]: 2.4 µM; EC50 [5]: > 17.4 µM; EC50 [6]: 11 µM; EC50 [7]: 0.3 µM; EC50 [8]: 4.2 µM; EC50 [9]: 0.2 µM; EC50 [10]: 6.2 µM; EC50 [17]: 17.4 µM; EC50 [13]: 17.4 µM; EC50 [14]: > 17.4 µM
